From patent US6413947B1, “Anilide derivative, production and use thereof” (Takeda Chemical Industries, Ltd., priority 1997, dated 2002)

melting point [°C]	Structure (SMILES)
178 to 180	Cc1ccc(-c2ccc3c(c2)C=C(C(=O)Nc2ccc(CN4CCSCC4)cc2)CC3)cc1 [Compound 50, 7—(4-methylphenyl)-N-[4—(thiomorpholinomethyl)phenyl]-3,4-dihydro-naphthalene-2-carboxamide]
150 to 151	Cc1ccc(-c2ccc3c(c2)C=C(C(=O)Nc2ccc(CN(CCO)CCO)cc2)CC3)cc1 [Compound 51, N-[4-[N,N-bis(2-hydroxyethyl)-aminomethyl]phenyl]-7—(4-methylphenyl)-3,4-dihydronaphthalene-2-carboxamide]
161 to 162	Cc1ccc(-c2ccc3c(c2)C=C(C(=O)Nc2ccc(CSC4CCCCC4)cc2)CCO3)cc1 [Compound 53, N-(4—(cyclohexylthiomethyl)-phenyl)-7—(4-methylphenyl)-2,3-dihydro-1-benzoxepine-4-carboxamide]
204 to 207	Cc1ccc(-c2cccc(/C=C/C(=O)Nc3ccc(CN4CCN(Cc5ccc6c(c5)OCO6)CC4)cc3)c2)cc1 [Compound 57, (E)-N-[4-[1—(3,4-methylenedioxybenzyl)-4-piperazinylmethyl]phenyl]-3—(4-methylphenyl)cinnamamide]
177 to 178	O=C(Nc1ccc(CN2CCCCC2)cc1)c1ccc2ccc(-c3ccccc3)cc2c1 [Compound 58, N-[4—(piperidinomethyl)phenyl]-7-phenylnaphthalene-2-carboxamide]
219 to 220	Cc1ccc(-c2ccc3c(c2)C=C(C(=O)Nc2ccc(CN4CCCCC4)cc2)C3)cc1 [Compound 60, N-[4—(piperidinomethyl)phenyl]-5—(4-methylphenyl)indene-2-carboxamide]
207 to 208	COc1ccc(N2CCN(Cc3ccc(NC(=O)/C=C/c4cccc(-c5ccc(C)cc5)c4)cc3)CC2)cc1 [Compound 62, (E)-N-[4-[1—(4-methoxy-phenyl)-4-piperazinylmethyl]phenyl]-3—(4-methylphenyl)cinnamamide]
163 to 165	Cc1ccc(-c2cccc(/C=C/C(=O)Nc3ccc(CN(C)CC#N)cc3)c2)cc1 [Compound 64, (E)-N-[4-[N-(cyanomethyl)-N-methylaminomethyl]phenyl]-3—(4-methylphenyl)cinnamamide]
198 to 200	Cc1ccc(-c2cccc(/C=C/C(=O)Nc3ccc(Cn4ccnc4)cc3)c2)cc1 [Compound 65, (E)-N-[4-[(imidazol-1-yl)methyl]phenyl]-3—(4-methylphenyl)cinnamamide]
153 to 154	Cc1ccc(-c2cccc(/C=C/C(=O)Nc3ccc(CN4CCCC(CO)C4)cc3)c2)cc1 (stereo not drawn) [Compound 66, (E)-N-[4-[3—(hydroxy-methyl)piperidinomethyl]phenyl]-3—(4-methylphenyl)cinnamamide]
132 to 134	Cc1ccc(-c2cccc(/C=C/C(=O)Nc3ccc(CN4CCCC(O)C4)cc3)c2)cc1 (stereo not drawn) [Compound 67, (E)-N-[4—(3-hydroxypiperidino-methyl)phenyl]-3—(4-methylphenyl)cinnamamide]
137 to 139	Cc1ccc(-c2cccc(/C=C/C(=O)Nc3ccc(CN4CCCCC4CO)cc3)c2)cc1 (stereo not drawn) [Compound 68, (E)-N-[4-[2—(hydroxy-methyl)piperidinomethyl]phenyl]-3—(4-methylphenyl)cinnamamide]
142 to 143	Cc1ccc(-c2cccc(/C=C/C(=O)Nc3ccc(CN4CCCCC4CCO)cc3)c2)cc1 (stereo not drawn) [Compound 69, (E)-N-[4-[2—(2-hydroxyethyl)piperidinomethyl]phenyl]-3—(4-methylphenyl)cinnamamide]
154 to 156	Cc1ccc(-c2cccc(/C=C/C(=O)Nc3ccc(CN4CCCCC4)cc3)c2)cc1 [Compound 70, (E)-N-[4—(piperidinomethyl)phenyl]-3—(4-methylphenyl)cinnamamide]
162 to 165	Cc1ccc(-c2cccc(/C=C/C(=O)Nc3ccc(C(O)c4ccccn4)cc3)c2)cc1 (stereo not drawn) [Compound 79, (E)-N-[4-[hydroxy(2-pyridyl)methyl]phenyl]-3—(4-methylphenyl)cinnamamide]
165 to 167	Cc1ccc(-c2cccc(/C=C/C(=O)Nc3ccc(C(O)c4cccc[n+]4[O-])cc3)c2)cc1 (stereo not drawn) [Compound 80, (E)-N-[4-[hydroxy(1-oxido-2-pyridyl)methyl]-phenyl]-3—(4-methylphenyl)cinnamamide]
159 to 160	O=C(C=Cc1cccc(-c2ccccc2)c1)Nc1ccc(CN2CCCCC2)cc1 [Compound 81, 1—(4—(3-phenylcinnamoylamino)-benzyl)piperidine]
176 to 177	Cc1ccc(-c2ccc3c(c2)C=C(C(=O)Nc2ccc(CSc4ccccc4)cc2)CCO3)cc1 [Compound 82, 7—(4-methylphenyl)-N-(4—(phenyl-thiomethyl)phenyl)-2,3-dihydro-1-benzoxepine-4-carboxamide]

melting point [°C]	Structure (SMILES)
166 to 167	O=C(C=Cc1cccc(-c2ccc(F)cc2)c1)Nc1ccc(CN2CCCCC2)cc1 [Compound 83, 1—(4—(3—(4-fluoro-phenyl)cinnamoylamino)benzyl)piperidine]
145 to 146	Cc1ccc(-c2ccc3c(c2)C=C(C(=O)Nc2ccc(CSCc4ccccc4)cc2)CCO3)cc1 [Compound 86, N-(4—(benzylthiomethyl)phenyl)-7—(4-methylphenyl)-2,3-dihydro-1-benzoxepine-4-carboxamide]
249 to 250	CN1CCCN(C)P1(=O)Cc1ccc(NC(=O)C2=Cc3cc(-c4ccccc4)ccc3CC2)cc1 [Compound 89, 2—(4—(3,4-dihydro-7-phenyl-naphthalene-2-carbonyl-amino)benzyl)-1,3-dimethyl-1,3,2-diazaphosphorinane-2-oxide]
203 to 204	Cc1ccc(-c2ccc3c(c2)C=C(C(=O)Nc2ccc(CN4CCCCC4)cc2)CCS3)cc1 [Compound 93, 7—(4-methylphenyl)-N-(4-piperidinomethylphenyl)-2,3-dihydro-1-benzothiepine-4-carboxamide]
201 to 202	Cc1ccc(-c2ccc3c(c2)C=C(C(=O)Nc2ccc(CCN4CCCCC4)cc2)CCO3)cc1 [Compound 99, N-(4—(2-piperidinoethyl)phenyl)-7—(4-methylphenyl)-2,3-dihydro-1-benzoxepine-4-carboxamide]
178 to 179	Cc1ccc(-c2ccc3c(c2)C=C(C(=O)Nc2ccc(CN(C)C4CCOCC4)cc2)CC(c2ccccc2)O3)cc1 (stereo not drawn) [Compound 101, 7—(4-methylphenyl)-2-phenyl-N-(4—((N-tetrahydropyran-4-yl-N-methylamino)methyl)phenyl)-2,3-dihydro-1-benzoxepine-4-carboxamide]
210 to 211	Cc1ccc(-c2ccc3c(c2)C=C(C(=O)Nc2ccc(CN4CCCCC4)cc2)CC(c2ccccc2)O3)cc1 (stereo not drawn) [Compound 102, 7—(4-methylphenyl)-2-phenyl-N-(4—(piperidinomethyl)phenyl)-2,3-dihydro-1-benzoxepine-4-carboxamide]
170 to 171	Cc1ccc(-c2ccc3c(c2)C=C(C(=O)Nc2ccc(CN(C)C4CCOCC4)cc2)CC(C)O3)cc1 (stereo not drawn) [Compound 104, 7—(4-methylphenyl)-2-methyl-N-(4—((N-tetrahydropyran-4-yl-N-methylamino)methyl)phenyl)-2,3-dihydro-1-benzoxepine-4-carboxamide]
175 to 176	Cc1ccc(-c2ccc3c(c2)C=C(C(=O)Nc2ccc(CN4CCCCC4)cc2)CC(C)O3)cc1 (stereo not drawn) [Compound 105, 7—(4-methylphenyl)-2-methyl-N-(4—(piperidinomethyl)phenyl)-2,3-dihydro-1-benzoxepine-4-carboxamide]
250 to 251	Cc1ccc(-c2ccc3c(c2)C=C(C(=O)Nc2ccc(CS(=O)(=O)C4CCCCC4)cc2)CCO3)cc1 [Compound 107, N-(4—(cyclohexylsulfonylmethyl)phenyl)-7—(4-methylphenyl)-2,3-dihydro-1-benzoxepine-4-carboxamide]
127 to 128	Cc1ccc(-c2ccc3c(c2)C=C(C(=O)Nc2ccc(C[S+]([O-])c4ccccc4)cc2)CCO3)cc1 (stereo not drawn) [Compound 108, 7—(4-methylphenyl)-N-(4—(phenylsulfinylmethyl)phenyl)-2,3-dihydro-1-benzoxepine-4-carboxamide]
208 to 209	Cc1ccc(-c2ccc3c(c2)C=C(C(=O)Nc2ccc(C[S+]([O-])Cc4ccccc4)cc2)CCO3)cc1 (stereo not drawn) [Compound 109, N-(4—(benzylsulfinylmethyl)phenyl)-7—(4-methylphenyl)-2,3-dihydro-1-benzoxepine-4-carboxamide]
183 to 184	Cc1ccc(-c2ccc3c(c2)C=C(C(=O)Nc2ccc(CNC4CCCCC4)cc2)CCO3)cc1 [Compound 114, N-(4—((cyclohexylamino)methyl)phenyl)-7—(4-methylphenyl)-2,3-dihydro-1-benzoxepine-4-carboxamide]
157 to 158	Cc1ccc(-c2ccc3c(c2)C=C(C(=O)Nc2ccc(CNc4ccccc4)cc2)CCO3)cc1 [Compound 115, N-(4—((phenylamino)methyl)phenyl)-7—(4-methylphenyl)-2,3-dihydro-1-benzoxepine-4-carboxamide]
147 to 148	Cc1ccc(-c2ccc3c(c2)C=C(C(=O)Nc2ccc(CNCc4ccccc4)cc2)CCO3)cc1 [Compound 117, N-(4—((benzylamino)methyl)phenyl)-7—(4-methylphenyl)-2,3-dihydro-1-benzoxepine-4-carboxamide]
152 to 153	Cc1ccc(-c2ccc3c(c2)C=C(C(=O)Nc2ccc(CN(C(C)C)C(C)C)cc2)CCO3)cc1 [Compound 119, N-(4—((diisopropylamino)methyl)phenyl)-7—(4-methylphenyl)-2,3-dihydro-1-benzoxepine-4-carboxamide]
154 to 155	Cc1ccc(-c2ccc3c(c2)C=C(C(=O)Nc2ccc(CNCC4CCCCC4)cc2)CCO3)cc1 [Compound 122, N-(4—((cyclohexylmethyl)aminomethyl)phenyl)-7—(4-methylphenyl)-2,3-dihydro-1-benzoxepine-4-carboxamide]
220 to 221	CN1CCN(c2ccc(-c3ccc4c(c3)C=C(C(=O)Nc3ccc(CN(C)C5CCOCC5)cc3)CCO4)cc2)CC1 [Compound 124, 7—(4—(4-methylpiperazin-1-yl)phenyl)-N-(4—((N-tetrahydropyran-4-yl-N-methylamino)methyl)phenyl)-2,3-dihydro-1-benzoxepine-4-carboxamide]
